Converted amounts (≈) assume the structure as drawn.
Legend:
Format in all cases: cell-based
[1] = test system: ATCC13883 strain (Klebsiella pneumoniae); experiment: Checkerboard antibacterial synergistic activity test with polymyxin E (FIC); design: key: FIC≤0.5 synergy; 0.5–1 additive; 1–2 indifferent; ≥2 antagonism; conditions: combined with polymyxin E
How it was run: (§1)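 Checkerboard in MH broth: colistin dilutions 16→0.015 μg/ml × test drug 256→4 μg/ml (concentrations before adding inoculum); drug mix plus bacteria, 37° C., 16 h. FIC cut-offs: ≤0.5 synergy; 0.5–1 additive; 1–2 indifferent; ≥2 antagonism.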

[2] = test system: ATCC19606 strain (Acinetobacter baumannii); experiment: as above; design: key: FIC≤0.5 synergy; 0.5–1 additive; 1–2 indifferent; ≥2 antagonism; conditions: combined with polymyxin E
How it was run: as §1

[3] = test system: ATCC25922 strain (Escherichia coli); experiment: as above; design: key: FIC≤0.5 synergy; 0.5–1 additive; 1–2 indifferent; ≥2 antagonism; conditions: combined with polymyxin E
How it was run: as §1

[4] = test system: ATCC9027 strain (Pseudomonas aeruginosa); experiment: as above; design: key: FIC≤0.5 synergy; 0.5–1 additive; 1–2 indifferent; ≥2 antagonism; conditions: combined with polymyxin E
How it was run: as §1

[5] = test system: ATCC13883 strain (Klebsiella pneumoniae); experiment: Broth microdilution, antibacterial activity of the compound used alone; conditions: for MIC: read-out: Antibacterial activity of the compound of Formula I, ATCC13883
Excerpt: (§2) The broth microdilution method was used to test the antibacterial effects of the compounds of the present invention against various Gram-negative bacterial strains when used alone.

[6] = test system: ATCC19606 strain (Acinetobacter baumannii); experiment: as above; conditions: for MIC: read-out: Antibacterial activity of the compound of Formula I, ATCC19606
Excerpt: as §2

[7] = test system: ATCC25922 strain (Escherichia coli); experiment: as above; conditions: for MIC: read-out: Antibacterial activity of the compound of Formula I, ATCC25922
Excerpt: as §2

[8] = test system: ATCC9027 strain (Pseudomonas aeruginosa); experiment: as above; conditions: for MIC: read-out: Antibacterial activity of the compound of Formula I, ATCC9027
Excerpt: as §2

Compound	Synergistic activity (FIC value) ATCC13883 [1]	Synergistic activity (FIC value) ATCC19606 [2]	Synergistic activity (FIC value) ATCC25922 [3]	Synergistic activity (FIC value) ATCC9027 [4]	Antibacterial activity of the compound of Formula I, ATCC13883 [5]	Antibacterial activity of the compound of Formula I, ATCC19606 [6]	Antibacterial activity of the compound of Formula I, ATCC25922 [7]	Antibacterial activity of the compound of Formula I, ATCC9027 [8]	MIC [5]	MIC [6]	MIC [7]	MIC [8]
COc1ccc(Oc2cccc(-c3c[nH]c(N=C(N)N)n3)c2)c(C)c1 [Compound I-93]	0.16	0.03	0.18	0.28	256 µg/mL	256 µg/mL	256 µg/mL	256 µg/mL				
CCc1sc(N=C(N)N)nc1-c1ccccc1-c1ccncn1 [Compound I-77]	0.52	0.52	0.63	1.25	256 µg/mL	256 µg/mL	256 µg/mL	256 µg/mL				
Oc1ccc(-c2ccccn2)c(-c2c[se]c(N=C3NCCCN3)n2)c1 [Compound I-137]	1.25	1.25	0.5	1.25	128 µg/mL	256 µg/mL	128 µg/mL	128 µg/mL				
NC(N)=Nc1nc(C2CC3CC4CC3CC2C4)cs1 (stereo not shown) [Compound I-117]	0.25	0.5	0.63	1.25					64 µg/mL (≈ 232 µM)	256 µg/mL (≈ 926 µM)	32 µg/mL (≈ 116 µM)	16 µg/mL (≈ 57.9 µM)
NC(N)=Nc1nc(-c2cccc3c2C(F)(F)c2cc(Br)ccc2-3)cs1 [Compound I-115]	1.25	1.25	1.25	1.25					256 µg/mL (≈ 608 µM)	256 µg/mL (≈ 608 µM)	256 µg/mL (≈ 608 µM)	256 µg/mL (≈ 608 µM)
CC(C)=CCOc1cc(-c2nc(N=C(N)N)oc2Cl)cc(OCC=C(C)C)c1O [Compound I-50]	0.16	0.13	0.26	0.31	256 µg/mL	256 µg/mL	256 µg/mL	256 µg/mL				
NC(N)=Nc1nc(-c2cc(I)c(O)c(I)c2)co1 [Compound I-35]	0.19	0.13	0.52	1.25	256 µg/mL	256 µg/mL	256 µg/mL	256 µg/mL				
NC(N)=Nc1nc(-c2cccc(OCc3ccccc3)c2)cs1 [Compound I-8]	0.53	0.25	1.25	0.53					256 µg/mL (≈ 789 µM)	256 µg/mL (≈ 789 µM)	256 µg/mL (≈ 789 µM)	128 µg/mL (≈ 395 µM)
CCc1[nH]c(N=C(N)N)nc1-c1cccc2c(C)cccc12 [Compound I-60]	0.31	0.12	0.38	0.31	256 µg/mL	256 µg/mL	256 µg/mL	256 µg/mL				
CSc1cc2c(C)cccn2c1-c1csc(N=C(N)N)n1 [Compound I-124]	0.19	0.38	0.04	0.04	256 µg/mL	256 µg/mL	256 µg/mL	256 µg/mL				
NC(N)=Nc1nc(-c2ccccc2OCc2ccccc2)cs1 [Compound I-7]	0.51	0.16	0.51	0.75	256 µg/mL	256 µg/mL	256 µg/mL	256 µg/mL				
NC(N)=Nc1nc(-c2cccc(NC(=O)Nc3ccccc3)c2)cs1 [Compound I-131]	0.09	0.31	0.14	0.06					256 µg/mL (≈ 726 µM)	256 µg/mL (≈ 726 µM)	256 µg/mL (≈ 726 µM)	256 µg/mL (≈ 726 µM)
NC(N)=Nc1nc(-c2cccc3ccsc23)c[nH]1 [Compound I-69]	1.25	1.25	1.25	0.51	256 µg/mL	256 µg/mL	256 µg/mL	256 µg/mL				
NC(N)=Nc1nc(-c2cc(Cl)c(O)c(Cl)c2)co1 [Compound I-40]	0.19	0.13	0.52	0.51	256 µg/mL	256 µg/mL	256 µg/mL	256 µg/mL				
NC(N)=Nc1nc(-c2cc(C(F)(F)F)c(O)c(C(F)(F)F)c2)co1 [Compound I-45]	0.19	0.13	0.52	1.25	256 µg/mL	256 µg/mL	256 µg/mL	256 µg/mL				
COc1ccccc1-c1csc(N=C(N)N)n1 [Compound I-4]	1.25	1.25	0.5	1.25	256 µg/mL	256 µg/mL	256 µg/mL	256 µg/mL				
CSc1cc2cc(C)cc(C)n2c1-c1nc(N=C2NCCCN2)sc1C [Compound I-195]	0.25	0.14	0.31	0.52	256 µg/mL	256 µg/mL	256 µg/mL	256 µg/mL				

— patent publication US20260250257A1, “ANTIBACTERIAL AND SYNERGISTIC ACTIVE COMPOUND AND USE THEREOF” (EAST CHINA UNIVERSITY OF SCIENCE AND TECHNOLOGY, priority 2023, published 2026)
